Measured values as given in US20090053697A1, “Pharmacological Applications of Mitochondrial DNA Assays” (priority 2001, published 2009).

Test: Random venous lactic acid measurement
Format: in vivo, human
Conditions: for months after resuming therapy; normal range 0.5-2.1 mmol/L
Source text: Venous specimens for lactic acid determination were collected in sodium fluoride/potassium oxalate tubes, with normal tourniquet and no specific patient instruction other than the avoidance of first clenching or hand pumping. […]

venous lactate levels: remained within the normal range
SMILES: Cc1cn([C@H]2C[C@H](N=[N+]=[N-])[C@@H](CO)O2)c(=O)[nH]c1=O [zidovudine]
